From ChEMBL document CHEMBL3885881, “DrugMatrix”

Species: Rattus norvegicus
Test: DrugMatrix - Regimen: Daily Repeat
Assay type: toxicity, organism-based, Sprague-Dawley
Design: regimen Daily Repeat, gender Male, age 6-8 weeks
Conditions: in vivo, po, route oral GAVAGE, vehicle .5 % CMC; for ABSOLUTE BASOPHIL / ABSOLUTE EOSINOPHIL / ABSOLUTE LYMPHOCYTE / ABSOLUTE MONOCYTE / ABSOLUTE SEGMENTED NEUTROPHIL / BASOPHIL / EOSINOPHIL / ERYTHROCYTE COUNT / HEMATOCRIT / HEMOGLOBIN / LEUKOCYTE COUNT / LYMPHOCYTE / MEAN CORPUSCULAR HEMOGLOBIN / MEAN CORPUSCULAR HEMOGLOBIN CONCENTRATION / MEAN CORPUSCULAR VOLUME / MONOCYTE / NEUTROPHIL / NUCLEATED RED BLOOD CELLS / PLATELET COUNT: tissue Blood; for ALANINE AMINOTRANSFERASE / ALBUMIN / ALKALINE PHOSPHATASE / ASPARTATE AMINOTRANSFERASE / BLOOD UREA NITROGEN / CARBON DIOXIDE / CHLORIDE / CHOLESTEROL / CREATINE PHOSPHOKINASE / CREATININE / GLUCOSE / LACTATE DEHYDROGENASE / LIPASE / PHOSPHORUS / POTASSIUM / SODIUM / TOTAL BILIRUBIN / TOTAL PROTEIN / URIC ACID: tissue Plasma
[1] = 0 mg/kg, 72 h, dose level Control, time 3 day
[2] = 0 mg/kg, 120 h, dose level Control, time 5 day
[3] = 200 mg/kg, 72 h, dose level Low, time 3 day

For `CCC1=C(C)CN(C(=O)NCCc2ccc(S(=O)(=O)NC(=O)N[C@H]3CC[C@H](C)CC3)cc2)C1=O` [GLIMEPIRIDE], the “ABSOLUTE BASOPHIL” value [1] was 0 CELLS/uL, the “ABSOLUTE EOSINOPHIL” value [1] was 0 CELLS/uL and the “ABSOLUTE LYMPHOCYTE” value [1] was 12191.17 CELLS/uL. The “ABSOLUTE MONOCYTE” value [1] was 183.17 CELLS/uL, the “ABSOLUTE SEGMENTED NEUTROPHIL” value [1] was 1192.33 CELLS/uL and the BASOPHIL [1] was 0%. For the same compound, the EOSINOPHIL [1] was 0%, the “ERYTHROCYTE COUNT” value [1] was 5.51 x10E6/uL and the HEMATOCRIT [1] was 35.45%. The HEMOGLOBIN [1] was 13.82 G/DL, the “LEUKOCYTE COUNT” value [1] was 13.57 x10E3/uL and the LYMPHOCYTE [1] was 89.83%. For the same compound, the “MEAN CORPUSCULAR HEMOGLOBIN” value [1] was 25.1 pg, the “MEAN CORPUSCULAR HEMOGLOBIN CONCENTRATION” value [1] was 38.98 G/DL and the “MEAN CORPUSCULAR VOLUME” value [1] was 64.42 fL. The MONOCYTE [1] was 1.33%, the NEUTROPHIL [1] was 8.83% and the “NUCLEATED RED BLOOD CELLS” value [1] was 0 /100WBC. The “PLATELET COUNT” value [1] was 1118.17 x10E3/uL, the “ALANINE AMINOTRANSFERASE” value [1] was 55 u/L and the ALBUMIN [1] was 4.15 G/DL. For the same compound, the “ALKALINE PHOSPHATASE” value [1] was 449.5 u/L, the “ASPARTATE AMINOTRANSFERASE” value [1] was 112.83 u/L and the “BLOOD UREA NITROGEN” value [1] was 17.33 mg/dL. For the same compound, the “CARBON DIOXIDE” value [1] was 29.5 mmol/L, the CHLORIDE [1] was 101 MEQ/L and the CHOLESTEROL [1] was 70 mg/dL. The “CREATINE PHOSPHOKINASE” value [1] was 1325.83 u/L, the CREATININE [1] was 0.18 mg/dL and the GLUCOSE [1] was 171.5 mg/dL. The “LACTATE DEHYDROGENASE” value [1] was 386 u/L, the LIPASE [1] was 10 u/L and the PHOSPHORUS [1] was 11.57 mg/dL. For the same compound, the POTASSIUM [1] was 6.21 MEQ/L, the SODIUM [1] was 141.65 MEQ/L and the “TOTAL BILIRUBIN” value [1] was 0.15 mg/dL. For the same compound, the “TOTAL PROTEIN” value [1] was 5.75 G/DL, the “URIC ACID” value [1] was 1.28 mg/dL and the “ABSOLUTE BASOPHIL” value [2] was 0 CELLS/uL. For the same compound, the “ABSOLUTE EOSINOPHIL” value [2] was 138.17 CELLS/uL, the “ABSOLUTE LYMPHOCYTE” value [2] was 13283.17 CELLS/uL and the “ABSOLUTE MONOCYTE” value [2] was 303.83 CELLS/uL. The “ABSOLUTE SEGMENTED NEUTROPHIL” value [2] was 1308.17 CELLS/uL, the BASOPHIL [2] was 0% and the EOSINOPHIL [2] was 1%. The “ERYTHROCYTE COUNT” value [2] was 5.32 x10E6/uL, the HEMATOCRIT [2] was 33.8% and the HEMOGLOBIN [2] was 13.63 G/DL. For the same compound, the “LEUKOCYTE COUNT” value [2] was 15.03 x10E3/uL, the LYMPHOCYTE [2] was 88.33% and the “MEAN CORPUSCULAR HEMOGLOBIN” value [2] was 25.68 pg. The “MEAN CORPUSCULAR HEMOGLOBIN CONCENTRATION” value [2] was 40.35 G/DL, the “MEAN CORPUSCULAR VOLUME” value [2] was 63.67 fL and the MONOCYTE [2] was 1.83%. For the same compound, the NEUTROPHIL [2] was 8.83%, the “NUCLEATED RED BLOOD CELLS” value [2] was 0 /100WBC and the “PLATELET COUNT” value [2] was 1097.5 x10E3/uL. The “ALANINE AMINOTRANSFERASE” value [2] was 54.5 u/L, the ALBUMIN [2] was 4.27 G/DL and the “ALKALINE PHOSPHATASE” value [2] was 337 u/L. The “ASPARTATE AMINOTRANSFERASE” value [2] was 94.67 u/L, the “BLOOD UREA NITROGEN” value [2] was 17 mg/dL and the “CARBON DIOXIDE” value [2] was 28.33 mmol/L. The CHLORIDE [2] was 101.5 MEQ/L, the CHOLESTEROL [2] was 71.33 mg/dL and the “CREATINE PHOSPHOKINASE” value [2] was 628.17 u/L. The CREATININE [2] was 0.19 mg/dL, the GLUCOSE [2] was 177.83 mg/dL and the “LACTATE DEHYDROGENASE” value [2] was 500.5 u/L. For the same compound, the LIPASE [2] was 9.5 u/L, the PHOSPHORUS [2] was 12.3 mg/dL and the POTASSIUM [2] was 5.63 MEQ/L. The SODIUM [2] was 143.03 MEQ/L, the “TOTAL BILIRUBIN” value [2] was 0.2 mg/dL and the “TOTAL PROTEIN” value [2] was 6.02 G/DL. For the same compound, the “URIC ACID” value [2] was 1.5 mg/dL, the “ABSOLUTE BASOPHIL” value [3] was 0 CELLS/uL and the “ABSOLUTE EOSINOPHIL” value [3] was 128.33 CELLS/uL. The “ABSOLUTE LYMPHOCYTE” value [3] was 12992 CELLS/uL, the “ABSOLUTE MONOCYTE” value [3] was 35 CELLS/uL and the “ABSOLUTE SEGMENTED NEUTROPHIL” value [3] was 1711.33 CELLS/uL. The BASOPHIL [3] was 0%, the EOSINOPHIL [3] was 1% and the “ERYTHROCYTE COUNT” value [3] was 5.2 x10E6/uL. For the same compound, the HEMATOCRIT [3] was 33.43%, the HEMOGLOBIN [3] was 13.5 G/DL and the “LEUKOCYTE COUNT” value [3] was 14.87 x10E3/uL. The LYMPHOCYTE [3] was 87%, the “MEAN CORPUSCULAR HEMOGLOBIN” value [3] was 26.03 pg and the “MEAN CORPUSCULAR HEMOGLOBIN CONCENTRATION” value [3] was 40.4 G/DL. For the same compound, the “MEAN CORPUSCULAR VOLUME” value [3] was 64.33 fL, the MONOCYTE [3] was 0.33% and the NEUTROPHIL [3] was 11.67%. The “NUCLEATED RED BLOOD CELLS” value [3] was 0 /100WBC, the “PLATELET COUNT” value [3] was 1286.33 x10E3/uL and the “ALANINE AMINOTRANSFERASE” value [3] was 61.67 u/L. For the same compound, the ALBUMIN [3] was 4.23 G/DL, the “ALKALINE PHOSPHATASE” value [3] was 355.67 u/L and the “ASPARTATE AMINOTRANSFERASE” value [3] was 97.67 u/L. The “BLOOD UREA NITROGEN” value [3] was 16.33 mg/dL, the “CARBON DIOXIDE” value [3] was 24 mmol/L and the CHLORIDE [3] was 103.67 MEQ/L. For the same compound, the CHOLESTEROL [3] was 81.33 mg/dL, the “CREATINE PHOSPHOKINASE” value [3] was 1168 u/L and the CREATININE [3] was 0.16 mg/dL. The GLUCOSE [3] was 150.33 mg/dL, the “LACTATE DEHYDROGENASE” value [3] was 169.33 u/L and the LIPASE [3] was 10 u/L. The PHOSPHORUS [3] was 12.27 mg/dL, the POTASSIUM [3] was 5.69 MEQ/L and the SODIUM [3] was 144.2 MEQ/L. The “TOTAL BILIRUBIN” value [3] was 0.13 mg/dL, the “TOTAL PROTEIN” value [3] was 5.83 G/DL and the “URIC ACID” value [3] was 1.53 mg/dL.
